Measurements from patent US20040102438A1, “Gaba-receptor modulators for the treatment of neurodegenerative diseases of the eye” (priority 2001, published 2004).

What was measured:
[1] = Properties of the active ingredients (solubility, lipophilicity); assay type: physicochemical
[2] = system: cultured cortical cells of the rat; experiment: L-glutamate excitotoxicity in cultured cortical cells, cell death by LDH release (Tests 1 and 2); assay type: cell-based; details: active ingredient 500 nm plus 10 nm L-glutamate; after 10, 30 and 60 minutes compared with the control group (FIG. 1, FIG. 2)
Protocol: Dissociated cortical cells from 16-18 day old fetal rats were bred in 35 mm dishes. The nutrient medium contained during the first 7 days L-lutamine (4 mM), glucose (6 g/l), penicillin (100 U/ml), streptomycin (100 μg/ml) and 10% hormonally enriched medium, which [contained] transferrin (1 mg/ml), insulin (250 μg/ml), putrescine (600 μM), sodium selenite (0.3 μM), progesterone (0.2 μM) and estradio (0.1 μM). The dishes were stored in an atmosphere (5% CO2 and […]) heated to 37 degrees Celsius.
To form the control group (Series 1), half of the dishes were supplemented with the nutrient medium 10 nm L-glutamate and incubated under normotoxic conditions for 4 hours.
To determine the neuroprotective properties, the other half of the dishes were supplemented with the nutrient medium flunitrazepam 500 nm and 10 nm L-glutamate (Series 2) and likewise incubated under normotoxic conditions.
The number of surviving or devitalized cells was determined by determination of the amount of lactate-dehydrogenase (LDH) ejected into the cell medium. The LDH activity was determined photospectrometrically by measurement of the NADH metabolism at 340 nm. […]
In the diagrams of FIG. 1 and FIG. 2 the measured values were entered as follows: The measured value describes the number of dead cells after the test in relation to the total number of cells before the test in percent. […]

Compound | water solubility [1] | number of dying cells [2]
Cc1ncc2n1-c1ccc(Cl)cc1C(c1ccccc1F)=NC2 [Midazolam] | water-soluble | 
COCc1c(C(=O)OC(C)C)ncc2[nH]c3ccc(OCc4ccccc4)cc3c12 [abecamil, abecarnil] |  | reduction in the number of dying cells
CN1C(=O)CN=C(c2ccccc2F)c2cc([N+](=O)[O-])ccc21 [flunitrazepam] |  | reduction in the number of dying cells
